According to patent US20260124213A1, “STAPHYLOCOCCUS AUREUS PBP4 INHIBITORS AND METHOD OF USE” (UNIVERSITY OF ROCHESTER, priority 2022, published 2026):

Legend:
[1] = system: recombinant PBP4; assay: BOCILLIN FL labeling of PBP4, gel electrophoresis and fluorescence detection; format: binding; conditions: kanamycin 2000 μM or 5000 μM
Experimental: PBP4 BOCILLIN™ FL Binding Competition Assays. The ability of putative PBP4 inhibitors to impact the active site of recombinant PBP4 was assessed using two previously established BOCILLIN™-FL Penicillin (Penicillin V conjugated to BODIPY fluorescent dye) binding assays. First, fluorescence polarization assays were performed as previously described. Briefly, the indicated amount of the putative PBP4 inhibitor or control antibiotic was incubated with 1 μM recombinant B. subtilis PBP4 or S. aureus PBP2a in potassium phosphate buffer (40 mM K2HPO4 and 10 mM KH2PO4) for 1 hour in black 96-well microtiter plates (Corning Life Sciences®, Corning, NY). […] BOCILLIN™ FL fluorescence polarization was measured at (495nm excitation and 545nm emission) in a SpectraMax® M5 multimode plate reader (Molecular Devices®, San Jose, CA). […] Second, gel electrophoresis and fluorescence detection were used to measure BOCILLIN™ FL labeling of PBP4 treated with the known PBP4 inhibitor cefoxitin (positive control), kanamycin (negative control) or 9314848 (test compound). […] BOCILLIN™ FL labeled PBP4 was imaged at λ=365 nm using a BioRad© Gel Doc EZ™ Imaging system and the gel was then subsequently stained with Bio-safe Coomassie Brilliant Blue stain (BioRad©, Hercules, CA, USA) to measure the amount of protein present in each reaction condition and analyzed using NIH-ImageJ software. […]

[2] = system: MRSA strain AH-1263; assay: Broth microdilution antibiotic potentiation; format: cell-based, Staphylococcus aureus; conditions: AH-1263; for Ampicillin MIC / Ampicillin MIC fold reduction / Cefotaxime MIC / Oxacillin MIC: Ex. 3 compound at 60 μM (18 and 19 at 30 μM)
Experimental: (§1) Broth Microdilution Method for Antibiotic Potentiation with MRSA Strains. Bacteria were cultured for 6 hours in CAMHB and sub-cultured to 5×10^5 CFU/mL in CAMHB. Subcultures were aliquoted (4 mL) into culture tubes and then inoculated with compound from 10 mM or 100 mM stock in DMSO to the desired concentration. […]. Bacteria treated with antibiotic alone served as the control. Samples from the secondary culture tubes were then aliquoted (200 μL) into the first row of wells of a 96-well microtiter plate. Rows 2-11 were filled (100 μL) with the remaining 4 mL of bacterial subculture containing the adjuvant. Row 12 was filled (100 μL) with uninoculated media. From row 1, 100 μL was transferred to row two and mixed 5-8 times before being transferred to row 3. This procedure was used to serial dilute the rest of the rows through 10. The microtiter plate was then covered in Press 'n Seal and incubated at 37° C.

[3] = system: MRSA strain AH-2204; assay: Broth microdilution antibiotic potentiation; format: cell-based, Staphylococcus aureus; conditions: AH-2204
Experimental: as §1

[4] = system: MRSA strain ATCC BAA-1556; assay: Broth microdilution antibiotic potentiation; format: cell-based, Staphylococcus aureus; conditions: ATCC BAA-1556
Experimental: as §1

[5] = target: recombinant B. subtilis PBP4 (Bacillus subtilis, UniProt P40750); assay: BOCILLIN FL fluorescence polarization binding competition; conditions: compound 50 μM; Ex. 3 series
Experimental: PBP4 BOCILLIN™ FL Binding Competition Assays. The ability of putative PBP4 inhibitors to impact the active site of recombinant PBP4 was assessed using two previously established BOCILLIN™-FL Penicillin (Penicillin V conjugated to BODIPY fluorescent dye) binding assays. First, fluorescence polarization assays were performed as previously described. Briefly, the indicated amount of the putative PBP4 inhibitor or control antibiotic was incubated with 1 μM recombinant B. subtilis PBP4 or S. aureus PBP2a in potassium phosphate buffer (40 mM K2HPO4 and 10 mM KH2PO4) for 1 hour in black 96-well microtiter plates (Corning Life Sciences®, Corning, NY). Following incubation, 1 μM (final concentration) BOCILLIN™ FL penicillin was added, and the mixture was incubated for 30 minutes. BOCILLIN™ FL fluorescence polarization was measured at (495nm excitation and 545nm emission) in a SpectraMax® M5 multimode plate reader (Molecular Devices®, San Jose, CA). All assays were repeated at least 8 times, averaged, and values falling outside of 2 standard deviations were considered outliers. Resulting data was plotted as percentage BOCILLIN™ FL binding inhibition=(T/U)×100; T=FL polarization of ((PBP4+BOCILLIN™ FL)−(PBP4+BOCILLIN™ FL+inhibitor compound)), U=FL polarization of ((PBP4+BOCILLIN™ FL)−(BOCILLIN™ FL)). Second, gel electrophoresis and fluorescence detection were used to measure BOCILLIN™ FL labeling of PBP4 treated with the known PBP4 inhibitor cefoxitin (positive control), kanamycin (negative control) or 9314848 (test compound). Briefly, 1 μM of recombinant PBP4 was mixed with 0, 50, 500, 2000, or 5000 μM 9314848 or control antibiotic in 50 mM phosphate buffer (pH 7.4) and incubated at 37° C. for 30 minutes. Next 40 μM of BOCILLIN™ FL was added to the reaction mixture and incubated for an additional 30 minutes at 37° C. Reactions were stopped by adding 5×SDS-PAGE gel loading dye, heated at 100° C. for 3 minutes and separated by electrophoresis in 12% SDS-PAGE (2 h, 120 Volts). BOCILLIN™ FL labeled PBP4 was imaged at λ=365 nm using a BioRad© Gel Doc EZ™ Imaging system and the gel was then subsequently stained with Bio-safe Coomassie Brilliant Blue stain (BioRad©, Hercules, CA, USA) to measure the amount of protein present in each reaction condition and analyzed using NIH-ImageJ software. The percent BOCILLIN™ FL binding was calculated by first normalizing the protein present in each reaction condition to that of untreated control and subsequently applying each reaction's protein normalization factor to each reaction's fluorescent signal. The percentage BOCILLIN™ FL binding inhibition was then calculated as the normalized band intensity of antibiotic/compound treated sample as compared to control sample (PBP4+BOCILLIN™ FL in the absence of compound).
To more directly evaluate whether 9314848 is likely to affect PBP4 function, the compound's ability to bind recombinant PBP4 was measured using BOCILLIN™ FL fluorescence polarization displacement assays. The premise for the assay is that the fluorescence polarization of the fluorescently labeled β-lactam, penicillin V (BOCILLIN™ FL), will increase upon binding to its cognate target (i.e., PBP4). Further, compounds that bind PBP4 and inhibit its function would impede BOCILLIN™ FL binding thereby allowing assessment of the protein binding affinity of 9314848 using a simple fluorescence reduction assay.

[6] = system: HEPG2 cells; assay: MTT cell viability / mammalian cytotoxicity; format: cell-based, human; conditions: compound at 100 μM; HEPG2 cells approximately 2.5 × 10^5 cells/mL
Experimental: Eukaryotic Toxicity Testing. Two rounds of eukaryotic toxicity testing were performed. Initially hits of interest were evaluated for antifungal activity in high throughput manner. To do so, 10^5 CFU of Saccharomyces cerevisiae YSB1001 cells (10 μL) were inoculated into individual wells of a microtiter plate containing yeast peptone dextrose media (88 μL) and 50 μM of each hit (2 μL). […] More extensive mammalian cytotoxicity testing was performed on the indicated highest priority hits of interest following International Organization for Standardization guidelines. Briefly, human liver epithelial cells (HEPG2) were cultured in Dulbecco's modified Eagle medium (DMEM; Fisher Scientific®) supplemented with 10% heat inactivated fetal bovine serum (FBS; Corning Life Sciences, Corning, NY) and 1% penicillin and streptomycin. Cells were incubated at 37° C. with 5% CO2 in Nunc™ tissue culture flasks (Roskilde, Denmark) until reaching 70% confluency. Cells were removed with 0.25% trypsin (Fisher Scientific®), resuspended in fresh medium, and used to seed approximately 2.5×10^5 mL^−1 cells into individual wells of a 96 well tissue culture microplate (Nunc™) containing 200 μL of fresh medium, and incubated for 24 hours. […] Mixtures were incubated for 20-24 h at 37° C. with 5% CO2, the media was removed and replaced with 100 μL fresh media and 10 μL of 12 mM (3-(4,5-dimethylthiazol-2-yl)-2,5-diphenyltetrazolium bromide (MTT) reagent (Cyquant™ Cell Viability kit; Invitrogen™, Carlsbad, CA) was added to each well. Cells were incubated at 37° C. with 5% CO2 for 2-4 hour, 85 μL of media was removed and the remainder was mixed with 50 μL DMSO and incubated for an additional 10 minutes at 37° C. in the dark. Using a SpectraMax® M5 microplate reader, cell viability was recorded as absorbance at OD540 nm. All compounds were tested in triplicate and cell viability was expressed as a percent viability of treated cells in comparison to mock treated cells. […]

[7] = Staphylococcus aureus, MRSA, read-out: Cefoxitin MIC, no compound (—)
[8] = Ex. 3 compound at 60 μM (18 and 19 at 30 μM)

Chain of recombinant B. subtilis PBP4 (P40750 22-624): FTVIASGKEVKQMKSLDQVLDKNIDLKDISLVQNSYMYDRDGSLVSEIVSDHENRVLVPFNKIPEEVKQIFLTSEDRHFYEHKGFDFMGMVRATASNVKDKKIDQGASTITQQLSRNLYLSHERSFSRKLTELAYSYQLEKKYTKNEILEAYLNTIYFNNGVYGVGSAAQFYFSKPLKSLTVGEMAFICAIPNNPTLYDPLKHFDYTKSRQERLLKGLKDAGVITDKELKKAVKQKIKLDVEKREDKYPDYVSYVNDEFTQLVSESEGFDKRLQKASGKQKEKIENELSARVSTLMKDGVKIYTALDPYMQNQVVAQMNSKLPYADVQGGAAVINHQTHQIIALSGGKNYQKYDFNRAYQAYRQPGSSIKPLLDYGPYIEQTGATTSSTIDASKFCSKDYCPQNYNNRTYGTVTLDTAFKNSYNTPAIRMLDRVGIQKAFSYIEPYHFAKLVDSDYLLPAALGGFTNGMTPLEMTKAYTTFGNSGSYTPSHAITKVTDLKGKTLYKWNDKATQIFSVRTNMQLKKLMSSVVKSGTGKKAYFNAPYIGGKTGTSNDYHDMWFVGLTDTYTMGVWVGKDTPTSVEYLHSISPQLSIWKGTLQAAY

Compound | Effect of preincubation on BOCILLIN FL labeling of PBP4 (gel) [1] | MIC [2, 7] [µg/mL] | MIC [3, 7] [µg/mL] | MIC ([4]; Staphylococcus aureus, read-out: Cefoxitin MIC, no compound (—)) [µg/mL] | Ampicillin MIC [2] [µg/mL] | Ampicillin MIC fold reduction [2] | Cefotaxime MIC [2] [µg/mL] | Oxacillin MIC [2] [µg/mL] | Ampicillin MIC [3, 8] [µg/mL] | Cefotaxime MIC [3, 8] [µg/mL] | Oxacillin MIC [3, 8] [µg/mL] | Oxacillin MIC fold reduction [3, 8] | Ampicillin MIC [4, 8] [µg/mL] | Cefotaxime MIC [4, 8] [µg/mL] | Cefotaxime MIC fold reduction [4, 8] | Oxacillin MIC [4, 8] [µg/mL] | Oxacillin MIC fold reduction [4, 8] | Percentage Bocillin Displacement (%), PBP4 binding [5] [%] | Toxicity with HEPG2 Cells (cell viability) [6] [%] | Cefotaxime MIC fold reduction [3, 8]
CO[C@@]1(NC(=O)Cc2cccs2)C(=O)N2C(C(=O)O)=C(COC(N)=O)CS[C@@H]21 [Cefoxitin, cefoxitin] | reduced the protein's ability to bind the fluorescent substrate in a dose-dependent manner | 4 | 2 | 8 |  |  |  |  |  |  |  |  |  |  |  |  |  |  |  | 
O=C(Nc1ccc2[nH]c(-c3cc(Cl)cc(Cl)c3)nc2c1)c1ccco1 [Compound 33, N-(2-(3,5-Dichlorophenyl)-1H-benzo[d]imidazol-5-yl)furan-2-carboxamide] |  |  |  |  | 1 | (16) | 32 | 16 | 2 | 16 | 4 | (8) | 16 | 16 | (2) | 16 | (2) | 56.5 ± 35.6 | 151 ± 11.3 | 
O=C(Nc1ccc2[nH]c(C3CCCCC3)nc2c1)c1ccco1 [Compound 34, N-(2-Cyclohexyl-1H-benzo[d]imidazol-5-yl)furan-2-carboxamide] |  |  |  |  | 2 | (8) | 32 | 16 | 2 | 8 | 8 | (4) | 16 | 32 |  | 32 |  | 60.3 ± 43.8 | 97 ± 5.8 | (2)
